According to patent US20200325543A1, “DIAGNOSTIC METHOD” (TOLREMO THERAPEUTICS AG, priority 2017, published 2020):
Counter-ions that a name gives are not always drawn. Like-named read-outs stand apart in the source and are kept apart here.

Legend:
SOX2 [1] = assay: SOX2 levels by Western blot in A375-P cells; assay type: cell-based; details: 1 μM PLX4720, 0.5 μM AZD6244 or both, indicated times, versus 0.01% DMSO
Description: (A) A375-P cells were treated with PLX4720 (BRAFi) or DMSO for 6 h, RNA was isolated and RNA-Seq was performed. […] Differentially expressed genes (DEGs) selected for pathway analysis are represented by red and blue dots depending on the direction of the transcriptional change (red genes are induced upon PLX4720, blue genes are repressed upon PLX4720). (B) Bar graphs showing the five top pathways with significant enrichment of the analyzed DEGs. Longer bars indicate stronger significance. (C) Top deregulated genes upon treatment with PLX4720 (left column). Top genes induced and repressed by PLX4720 are shown in separate lists. (D) Indicated cell lines were treated with 1 μM PLX4720 or 0.01% DMSO (0 h) for the indicated times and the expressional changes of selected genes associated with stemness/EMT were confirmed by qPCR. […] As key player in the sternness signature, SOX2 levels were assessed. […] (F) A375-P cells were treated with 1 μM PLX4720, 0.5 μM AZD6244 (MEK1/2 inhibitor) or 0.01% DMSO for the indicated times and SOX2 levels were assessed by Western blot analysis. […] (G) A375-P cells were treated with 1 μM PLX4720 (BRAFi), 0.5 μM AZD6244 (MEKi), a combination of both drugs or 0.01% DMSO for the indicated times and SOX2 levels were assessed by Western blot analysis. […] For all Western blots, individual time points were assessed in at least two independent experiments. […]

[2] = tested on: genes associated with stemness/EMT; assay: RNA-Seq / qPCR of genes associated with stemness/EMT in melanoma cells; assay type: cell-based; details: A375-P cells, 1 μM PLX4720, 0.5 μM AZD6244 or both, 24 h, versus 0.01% DMSO
SOX2 [3] = assay: Screen of a library of FDA-approved drugs for SOX2 antibody staining in A375 cells treated with PLX4720 and AZD6244; details: for cor. loess / raw / norm: A375 cells, 5 uM test drug with 1 uM PLX4720 and 0.5 uM AZD6244, 24 h; for cor. loess: normalized and geometry-corrected (loess) signal; for raw: raw signal (ratio of FL2 SOX2 antibody and FL3 nuclear staining), screen run in duplicate; for norm: signal after plate normalization
[4] = Z-test against negative controls (DMSO), single dose 5 uM

Compound | SOX2 levels (Western blot) (SOX2 [1]) | expressional changes of selected genes associated with stemness/EMT (qPCR) [2] | cor. loess (SOX2 [3]) | raw (SOX2 [3]) | norm (SOX2 [3]) | z (SOX2 [3]; [4]) | z (SOX2 [3])
Cn1cnc2c(F)c(Nc3ccc(Br)cc3Cl)c(C(=O)NOCCO)cc21 [AZD6244] | induce similar SOX2 levels | comparable effects on transcript levels | – | – | – | – | –
C[C@H]1[C@@H](O)O[C@@H]2O[C@@]3(C)CC[C@H]4[C@H](C)CC[C@@H]1[C@@]24OO3 [ARTENIMOL] | – | – | 0.4829 | 0.978 | 0.4488 | 5.354 | –
CCS(=O)(=O)N1CCN(c2ccc(Nc3ncc(C(N)=O)c(NC4CC4)n3)cc2)CC1 [Cerdulatinib (PRT062070, PRT2070), Cerdulatinib] | – | – | 0.4672 | 0.9741 | 0.6248 | 3.646 | –
O=C(CCCCCCC(=O)Nc1ccccc1)NO [VORINOSTAT] | – | – | 0.9868 | 0.9634 | 0.984 | 13.43 | –
CC1(C)O[C@@H]2C[C@H]3[C@@H]4C[C@H](F)C5=CC(=O)C=C[C@]5(C)[C@H]4[C@@H](O)C[C@]3(C)[C@]2(C(=O)CO)O1 [FLUNISOLIDE] | – | – | 0.6279 | 0.9737 | 0.6807 | 5.388 | –
Cc1ccc(C(=O)Nc2ccc(CN3CCN(C)CC3)c(C(F)(F)F)c2)cc1C#Cc1cnc2cccnn12 [Ponatinib (AP24534), Ponatinib] | – | – | 0.6841 | 0.9701 | 0.7518 | 5.338 | –
Cc1cc(Nc2ncc(Cl)c(Nc3ccccc3S(=O)(=O)C(C)C)n2)c(OC(C)C)cc1C1CCNCC1 [LDK378] | – | – | 3.065 | 0.8857 | 3.411 | 23.92 | –
CCC(=O)O[C@]1(C(=O)CCl)[C@@H](C)C[C@H]2[C@@H]3CCC4=CC(=O)C=C[C@]4(C)[C@@]3(F)[C@@H](O)C[C@@]21C [CLOBETASOL PROPIONATE] | – | – | 0.4021 | 0.9794 | 0.4554 | 5.471 | –
C[C@]12C=CC(=O)C=C1CC[C@H]1[C@@H]3C[C@@H](O)[C@](O)(C(=O)CO)[C@@]3(C)C[C@H](O)[C@@]12F [TRIAMCINOLONE] | – | – | 0.4006 | 0.9821 | 0.3941 | 3.438 | –
C[C@H]1C[C@@H]2[C@H]([C@@H](O)C[C@@]3(C)[C@H]2CC[C@]3(O)C(=O)COC(=O)CCC(=O)O)[C@@]2(C)C=CC(=O)C=C12 [METHYLPREDNISOLONE SODIUM SUCCINATE] | – | – | 0.4008 | 0.9806 | 0.4166 | 5.452 | –
CC(=O)N[C@@H](CC(C)C)C(=O)O [ACETYL-L-LEUCINE] | – | – | 0.5782 | 0.9737 | 0.5922 | 6.41 | –
CC(=O)OCC(=O)[C@@]12OC3(CCCC3)O[C@@H]1C[C@H]1[C@@H]3CCC4=CC(=O)C=C[C@]4(C)[C@@]3(F)[C@@H](O)C[C@@]12C [AMCINONIDE] | – | – | 0.491 | 0.9761 | 0.5647 | 6.68 | –
CC(=O)OCC(=O)[C@@]1(O)CC[C@H]2[C@@H]3CCC4=CC(=O)CC[C@]4(C)[C@@]3(F)[C@@H](O)C[C@@]21C [FLUDROCORTISONE ACETATE] | – | – | 0.4578 | 0.977 | 0.5063 | 3.773 | –
Cc1c(OCC(F)(F)F)ccnc1C[S+]([O-])c1nc2ccccc2[nH]1 (stereo not shown) [LANSOPRAZOLE] | – | – | 0.2732 | 0.9819 | 0.3712 | 3.717 | –
CCN(CC)Cc1cc(Nc2ccnc3cc(Cl)ccc23)ccc1O [AMODIAQUINE DIHYDROCHLORIDE] | – | – | 0.9308 | 0.9611 | 1.053 | 7.671 | –
CCCC(=O)O[C@]1(C(=O)COC(C)=O)CC[C@H]2[C@@H]3C[C@H](F)C4=CC(=O)C=C[C@]4(C)[C@@]3(F)[C@@H](O)C[C@@]21C [Difluprednate] | – | – | 0.4529 | 0.9801 | 0.4293 | 4.842 | –
OC1(c2ccc(Cl)c(C(F)(F)F)c2)CCN(CCCC(c2ccc(F)cc2)c2ccc(F)cc2)CC1 [PENFLURIDOL] | – | – | 2.248 | 0.9179 | 2.491 | 30.59 | –
HYDROCORTISONE HEMISUCCINATE | – | – | 0.4622 | – | 0.507 | – | 3.809
Cc1cc2nc3ccc(N(C)C)cc3[s+]c2cc1N [TOLONIUM CHLORIDE] | – | – | 0.7082 | 0.971 | 0.6829 | 7.851 | –
CCNC1(C(N)=O)CCN(c2ncnc3c2nc(-c2ccccc2Cl)n3-c2ccc(Cl)cc2)CC1 [Otenabant (CP-945598) HCl] | – | – | 1.069 | 0.9665 | 0.8357 | 4.116 | –
CC(C)(C)CC(C)(C)c1ccc(OCCOCC[N+](C)(C)Cc2ccccc2)cc1 [BENZETHONIUM CHLORIDE] | – | – | 0.9288 | 0.9635 | 0.9712 | 7.654 | –
CCCCc1oc2ccc(NS(C)(=O)=O)cc2c1C(=O)c1ccc(OCCCN(CCCC)CCCC)cc1 [DRONEDARONE HYDROCHLORIDE] | – | – | 3.823 | 0.8721 | 4.004 | 52.01 | –
CCC(=O)O[C@]1(C(=O)CCl)[C@@H](C)C[C@H]2[C@@H]3C[C@H](F)C4=CC(=O)C=C[C@]4(C)[C@@]3(F)[C@@H](O)C[C@@]21C [Halobetasol Propionate] | – | – | 0.4055 | 0.9809 | 0.3998 | 4.335 | –
COc1ccc(/C=C\c2cc(OC)c(OC)c(OC)c2)cc1OP(=O)([O-])[O-].[Na+].[Na+] [Fosbretabulin (Combretastatin A4 Phosphate (CA4P)) Disodium] | – | – | 0.3981 | 0.9814 | 0.3844 | 4.256 | –
O=[N+]([O-])C(Br)(CO)CO [BRONOPOL] | – | – | 0.4507 | 0.9779 | 0.4505 | 4.996 | –
CC[C@@H](C(=O)[C@@H](C)[C@@H](O)[C@H](C)[C@@H]1O[C@@H]([C@@H](CC)C(=O)O)CC[C@@H]1C)[C@H]1O[C@]2(C=C[C@@H](O)[C@]3(CC[C@@](C)([C@H]4CC[C@](O)(CC)[C@H](C)O4)O3)O2)[C@H](C)C[C@@H]1C [SALINOMYCIN, SODIUM] | – | – | 0.802 | 0.9671 | 0.8129 | 8.891 | –
O=C(CCCCCCNC(=O)c1cnc(N(c2ccccc2)c2ccccc2)nc1)NO [Rocihnostat (ACY-1215), Rocihnostat] | – | – | 0.6577 | 0.9705 | 0.7378 | 5.132 | –
COC(=O)[C@]12CCC(C)(C)C[C@H]1[C@H]1C(=O)C=C3[C@@]4(C)C=C(C#N)C(=O)C(C)(C)[C@@H]4CC[C@@]3(C)[C@]1(C)CC2 [Bardoxolone Methyl] | – | – | 1.25 | 0.9513 | 1.346 | 9.753 | –
